We go through eleven compounds from ChEMBL document CHEMBL1201862, “PubChem BioAssay data set” (2004).

Test systems include SK-MEL-2; SK-MEL-5; ACHN; NCI/ADR-RES; PC-3; NCI-H23; CAKI-1; MDA-MB-435; MCF7; EKVX; NCI-H226; SK-OV-3; MDA-N; UACC-257; T47D; A498; IGROV-1; RPMI-8226; K562; SR.
Common to all, as to assay: NCI anticancer screen, dose series, 48 h

Values joined by “and” are separate entries in the source; they are usually repeats but may differ in a detail not shown here. Equal values may be shown once.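 Values below derive from 48-hour exposures of cells grown in 96-well plates, with endpoints linearly interpolated between the two concentrations bracketing the appropriate inhibition level. GI50: concentration for 50% inhibition of growth.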 Active and inactive are the calls of the source. Rule as the data show it: active = GI50 up to about 1.1 µM and inactive = higher.

For `CCC(=O)OC1CCn2c1nc1c2C(=O)C(C)=C(N2CC2)C1=O` (configuration not stated), the GI50 in the test with SK-MEL-2 was 0.064 µM (active); in the test with SK-MEL-5, 0.0294 µM (active); in the test on ACHN, 0.0895 µM (active); with NCI/ADR-RES, 0.048 µM (active); in the test on PC-3, 0.105 µM (active); in the test with NCI-H23, < 0.0423 µM (active). In addition, the GI50 in the test with CAKI-1 is 0.0509 µM (active); in the test on MDA-MB-435, 0.0254 µM (active); in the test with MCF7, 0.00637 µM (active); with EKVX it was 0.224 µM (active); in the test with NCI-H226, 0.111 µM (active); in the test on SK-OV-3, 0.103 µM (active). Besides, the GI50 with MDA-N was 0.043 µM (active); in the test on UACC-257, 0.0711 µM (active); in the test with T47D, 1.6 µM (inactive); in the test on A498 it was 0.0526 µM (active); in the test with IGROV-1, 0.482 µM (active).
As to `Nc1ccn(C2CCC(COP(=O)(O)OCC(O)COP(=O)(O)OCC3OC(n4cc(F)c(=O)[nH]c4=O)CC3O)O2)c(=O)n1` (configuration not stated), the GI50 in the test with SK-MEL-2 was 75.3 µM (inactive); with RPMI-8226, 10.4 µM (inactive); in the test on SK-MEL-5, 0.514 µM (active); with ACHN, < 0.0106 µM (active); with K562 it was 2.61 µM (inactive); with NCI/ADR-RES, 0.215 µM (active). Moreover, the GI50 was 2.01 µM (inactive) with PC-3; 0.139 µM (active) in the test on NCI-H23; 0.316 µM (active) in the test with CAKI-1; 14.8 µM (inactive) with MDA-MB-435; < 0.01 µM (active) with MCF7; > 75.9 µM (inactive) in the test with EKVX. The GI50 was > 100 µM (inactive) in the test on NCI-H226; 59.2 µM (inactive) in the test on SK-OV-3; 8.34 µM (inactive) in the test on MDA-N; > 100 µM (inactive) with UACC-257; 1.42 µM (inactive) in the test with T47D; 11.2 µM (inactive) in the test on IGROV-1.
As for `CCNC(=O)CCC(C)[C@H]1CCC2C3C(C[C@H](OC(C)=O)[C@@]21C)[C@@]1(C)CCC2(C[C@H]1C[C@H]3OC(C)=O)OOC1(CCC(C)CC1)OO2` (some centres not stated), the GI50 was 1.17 µM (inactive) and 1.03 µM (active) in the test on SR; 1.58 µM (inactive) and 1.61 µM (inactive) in the test on SK-MEL-2; 1.67 µM (inactive) and 1.61 µM (inactive) in the test on SK-MEL-5; 1.55 µM (inactive) and 1.63 µM (inactive) with ACHN; 3.8 µM (inactive) in the test on K562; 3.31 µM (inactive) and 1.73 µM (inactive) in the test with NCI/ADR-RES. The GI50 is 2.13 µM (inactive) and 2.2 µM (inactive) in the test on NCI-H23; 1.5 µM (inactive) and 820 nM (active) in the test with CAKI-1; 1.79 µM (inactive) and 1.72 µM (inactive) with MDA-MB-435; 2.56 µM (inactive) and 2.7 µM (inactive) with MCF7; 1.39 µM (inactive) and 1.3 µM (inactive) with EKVX; 1.52 µM (inactive) and 1.69 µM (inactive) in the test with NCI-H226. The GI50 in the test with SK-OV-3 is 4.02 µM (inactive) and 2.54 µM (inactive); in the test on MDA-N it was 1.88 µM (inactive) and 2.65 µM (inactive); in the test with UACC-257 it was 4.63 µM (inactive) and 2.62 µM (inactive); in the test with T47D, 1.43 µM (inactive) and 1.68 µM (inactive); in the test with IGROV-1, 1.35 µM (inactive) and 1.41 µM (inactive).
As for `Cn1c2ccccc2c2c(=O)[nH]c(=O)[nH]c21`, the GI50 in the test on SR, in the test with SK-MEL-2, in the test with RPMI-8226, in the test on SK-MEL-5, with ACHN and in the test on K562 was > 100 µM (inactive) in each case. Also, the GI50 with NCI/ADR-RES, with NCI-H23, with CAKI-1, with MDA-MB-435, in the test on MCF7 and in the test on EKVX was > 100 µM (inactive) in each case. The GI50 with NCI-H226, in the test on SK-OV-3, in the test with MDA-N, in the test on UACC-257, in the test on T47D and with A498 was > 100 µM (inactive) throughout. For the same compound, the GI50 in the test with IGROV-1 is > 100 µM (inactive).
For the compound `N#CCCN(CCC#N)c1ccc(/C=N\c2ccc(F)cc2)cc1`, the GI50 in the test with SR is 58.9 µM (inactive); with SK-MEL-2, > 16.1 µM (inactive); in the test with RPMI-8226, > 39.8 µM (inactive); with SK-MEL-5, 14.5 µM (inactive); in the test with ACHN it was 3.16 µM (inactive); in the test with K562 it was 0.137 µM (active). Further, the GI50 in the test on PC-3 is 75.3 µM (inactive); in the test with NCI-H23, > 100 µM (inactive); in the test on CAKI-1, > 68.5 µM (inactive); in the test with MDA-MB-435, 17.3 µM (inactive); in the test with MCF7, > 100 µM (inactive); in the test on EKVX it was > 100 µM (inactive). The GI50 with NCI-H226 was > 100 µM (inactive); with SK-OV-3, > 100 µM (inactive); with MDA-N, 71.3 µM (inactive); with UACC-257, > 100 µM (inactive); in the test with T47D, > 100 µM (inactive); in the test with A498 it was > 100 µM (inactive). In the test on IGROV-1, the GI50 was 45.6 µM (inactive).
With `COCN1C(=O)[C@@H]2CCCN2C(=O)c2cc(N)ccc21`, the GI50 in the test on SK-MEL-2, in the test on ACHN, in the test with NCI/ADR-RES, with PC-3, in the test with NCI-H23 and in the test on CAKI-1 was > 100 µM (inactive) in each case. The GI50 in the test on MDA-MB-435, in the test on MCF7, in the test with EKVX, in the test on SK-OV-3, with MDA-N and with UACC-257 was > 100 µM (inactive) throughout. Besides, the GI50 in the test on T47D, in the test on A498 and in the test with IGROV-1 was > 100 µM (inactive) in each case.
Take `CCOC(=O)C(NC(=O)c1cccc(Cl)c1)(N1CCN(c2cc3c(cc2F)c(=O)c(C(=O)O)cn3C2CC2)CC1)C(F)(F)F` (configuration not stated): the GI50 was 6.61 µM (inactive) with SR; 14.7 µM (inactive) in the test with SK-MEL-2; 3.94 µM (inactive) in the test on RPMI-8226; 12.9 µM (inactive) in the test with SK-MEL-5; 15.5 µM (inactive) in the test on ACHN; 4.78 µM (inactive) in the test on K562. For the same compound, the GI50 was 13.7 µM (inactive) in the test with PC-3; 15.4 µM (inactive) with NCI-H23; 17.3 µM (inactive) in the test on CAKI-1; 14.2 µM (inactive) in the test on MDA-MB-435; 18.6 µM (inactive) with EKVX; 19.5 µM (inactive) in the test with NCI-H226. In addition, the GI50 was 23.4 µM (inactive) with SK-OV-3; 15.2 µM (inactive) in the test on MDA-N; 19.1 µM (inactive) in the test with T47D; 20 µM (inactive) in the test on A498; 16.1 µM (inactive) in the test with IGROV-1.
Take `CCCCSC1=N/C(=C\c2ccccc2O)C(=O)N1`: the GI50 is 57.8 µM (inactive) with SK-MEL-2; 75.5 µM (inactive) with RPMI-8226; 40.3 µM (inactive) with ACHN; 78.3 µM (inactive) with K562; 66.7 µM (inactive) in the test with NCI/ADR-RES; 23.4 µM (inactive) in the test on PC-3. In addition, the GI50 in the test with NCI-H23 is 42.7 µM (inactive); in the test with CAKI-1 it was > 100 µM (inactive); with MDA-MB-435, > 100 µM (inactive); with MCF7, 33.5 µM (inactive); in the test with EKVX, 35.7 µM (inactive); with NCI-H226, > 100 µM (inactive). The GI50 was > 100 µM (inactive) in the test on SK-OV-3; 76 µM (inactive) in the test with MDA-N; 31.2 µM (inactive) in the test with UACC-257; 32.7 µM (inactive) with T47D; 28.2 µM (inactive) in the test on A498; > 100 µM (inactive) in the test with IGROV-1.
Take `COc1nc(N)nc2c1n(C)c[n+]2C`: the GI50 in the test with SK-MEL-2, in the test with RPMI-8226, in the test on SK-MEL-5, in the test on ACHN, in the test on K562 and in the test on NCI/ADR-RES was > 100 µM (inactive) throughout. Further, the GI50 with PC-3, in the test with NCI-H23, in the test with CAKI-1, with MDA-MB-435, with EKVX and in the test on NCI-H226 was > 100 µM (inactive) in each case. Further, the GI50 in the test on SK-OV-3, in the test on MDA-N, in the test with UACC-257, in the test on T47D, in the test on A498 and in the test on IGROV-1 was > 100 µM (inactive) throughout.
In the case of `O=S(=O)(/N=S(/Nc1ccccc1)C(Cl)Cl)c1ccccc1` (configuration not stated), the GI50 in the test on SK-MEL-2, in the test on RPMI-8226, with ACHN, in the test with K562, with NCI/ADR-RES and in the test on PC-3 was > 100 µM (inactive) throughout. In addition, the GI50 with NCI-H23, with MDA-MB-435, with MCF7, in the test with EKVX, with NCI-H226 and with SK-OV-3 was > 100 µM (inactive) in each case. Moreover, the GI50 with MDA-N, with UACC-257, in the test with T47D and in the test on IGROV-1 was > 100 µM (inactive) throughout.
In the case of `CCN1C(=O)C(=C/C=C/c2ccc(OC)cc2)C(=O)N(CC)C1=S`, the GI50 in the test with SK-MEL-2 was > 100 µM (inactive); in the test on RPMI-8226, 33.6 µM (inactive); in the test on SK-MEL-5, 26.5 µM (inactive); in the test on ACHN, 17.7 µM (inactive); in the test on K562, 31.3 µM (inactive); in the test on NCI/ADR-RES, 13.8 µM (inactive). The GI50 in the test with PC-3 is 19.4 µM (inactive); in the test with NCI-H23 it was > 100 µM (inactive); with CAKI-1, 21.7 µM (inactive); with MDA-MB-435, 21.6 µM (inactive); in the test with MCF7 it was 33.8 µM (inactive); in the test on EKVX, 24 µM (inactive). Also, the GI50 is 32.9 µM (inactive) with NCI-H226; 23.1 µM (inactive) in the test on SK-OV-3; 18.2 µM (inactive) in the test on MDA-N; 16 µM (inactive) in the test with UACC-257; > 100 µM (inactive) with T47D; 16.3 µM (inactive) in the test on IGROV-1.
